Laboratory results from US6900219B2, “ABCA-1 elevating compounds” (CV Therapeutics, Inc., priority 2002, dated 2005).

System: ABCA-1 gene
Assay: compounds tested and found to elevate cellular expression of the ABCA-1 gene (Examples 1-6; test not named)
Type: cell-based
Method: Activity testing is conducted as described in those patents and patent applications referenced above, and in the Examples below, and by methods apparent to one skilled in the art.

Molecule	cellular expression of the ABCA-1 gene
2-[(4-methylethylphenyl)carbonylamino]-1,3-thiazoline-4-carboxylic acid	elevate cellular expression of the ABCA-1 gene
2-[({2-[4-(6-chlorobenzothiazol-2-yl)piperazinyl]ethyl}oxycarbonyl)methylthio]acetic acid	elevate cellular expression of the ABCA-1 gene
6-(2-aminophenyl)-3-(methylethylthio)-2H-1,2,4-triazin-5-one	elevate cellular expression of the ABCA-1 gene
CCc1cc(OC(=O)c2ccco2)n(-c2cccc(Cl)c2)n1 [1-(3-chlorophenyl)-3-ethylpyrazol-5-yl furan-2-carboxylate]	elevate cellular expression of the ABCA-1 gene
CCCc1c(C(=O)N2CCN(C(=O)C(CC)c3ccccc3)C(C)C2)cnn1-c1nc(-c2cccc(OC)c2)cs1 (centres unmarked) [1-(4-{1-[4-(3-methoxy-phenyl)-thiazol-2-yl]-5-propyl-1H-pyrazole-4-carbonyl}-2-methyl-piperazin-1-yl)-2-phenyl-butan-1-one]	elevate cellular expression of the ABCA-1 gene
CCc1c(C(=O)N2CCN(C(=O)C(c3ccccc3)c3ccccc3)C(C)C2)cnn1-c1nc(-c2ccc(Cl)cc2)cs1 (centres unmarked) [1-(4-{1-[4-(4-chloro-phenyl)-thiazol-2-yl]-5-ethyl-1H-pyrazole-4-carbonyl}-2-methyl-piperazin-1-yl)-2,2-diphenyl-ethanone]	elevate cellular expression of the ABCA-1 gene
CCc1c(C(=O)N2CCN(C(=O)C(CC)c3ccccc3)C(C)C2)cnn1-c1nc(-c2ccc(Cl)cc2)cs1 (centres unmarked) [1-(4-{1-[4-(4-chloro-phenyl)-thiazol-2-yl]-5-ethyl-1H-pyrazole-4-carbonyl}-2-methyl-piperazin-1-yl)-2-phenyl-butan-1-one]	elevate cellular expression of the ABCA-1 gene
CCc1c(C(=O)N2CCN(C(=O)C(c3ccccc3)c3ccccc3)C(C)C2)cnn1-c1nc(-c2ccc(OC)cc2)cs1 (centres unmarked) [1-(4-{5-ethyl-1-[4-(4-methoxy-phenyl)-thiazol-2-yl]-1H-pyrazole-4-carbonyl}-2-methyl-piprazin-1-yl)-2,2-diphenyl-ethanone]	elevate cellular expression of the ABCA-1 gene
CCc1c(C(=O)N2CCN(C(=O)C(C)C)C(C)C2)cnn1-c1nc(-c2ccc(OC)cc2)cs1 (centres unmarked) [1-(4-{5-ethyl-1-[4-(4-methoxy-phenyl)-thiazol-2-yl]-1H-pyrazole-4-carbonyl}-2-metyl-piperazin-1-yl)-2-methyl-propan-1-one]	elevate cellular expression of the ABCA-1 gene
CCCCCCCC(=O)N1CCC2(CC1)OCCO2 [1-(8-aza-1,4-dioxaspiro[4.5]dec-8-yl)octan-1-one]	elevate cellular expression of the ABCA-1 gene
O=[N+]([O-])c1ccc(OCCOc2ccc([N+](=O)[O-])cc2)cc1 [1-nitro-4-[2-(4-nitrophenoxy)ethoxy]benzene]	elevate cellular expression of the ABCA-1 gene
COc1ccccc1NC(=O)N(CCc1ccccc1)C(C)c1nc2ccccc2c(=O)n1-c1ccc(Br)cc1 (centres unmarked) [1-{1-[3-(4-bromophenyl)-4-oxo-3,4-dihydro-quinazolin-2-yl]-ethyl}-3-(2-methoxy-phenyl-1-phenethylurea]	elevate cellular expression of the ABCA-1 gene
COc1ccc(-c2nc3cc(/N=C/c4cccc([N+](=O)[O-])c4)ccc3o2)cc1 [1-{5-[(1E)-1-aza-2-(3-nitrophenyl)vinyl]benzoxazol-2-yl}-4-methoxybenzene]	elevate cellular expression of the ABCA-1 gene
C1=C(c2ccccc2)Nc2nc3ccccc3n2C1c1ccccc1 (centres unmarked) [2,4-diphenyl-1,4,5-trihydropyrimidino[1,2-a]benzimidazole]	elevate cellular expression of the ABCA-1 gene
Nc1cc(C(F)(F)F)ccc1N1CCc2ccccc2C1 [2-(2-1,2,3,4-tetrahydroisoquinolyl)-5-(trifluoromethyl)phenylamine]	elevate cellular expression of the ABCA-1 gene
O=C(NC1=NC(C(=O)O)CS1)c1ccc2c(c1)OCO2 (centres unmarked) [2-(2H-benzo[3,4-d]1,3-dioxolan-5-ylcarbonylamino)-1,3-thiazoline-4-carboxylic acid]	elevate cellular expression of the ABCA-1 gene
Nc1nc(-c2ccc(Cl)cc2)nc2sc3c(c12)CCCCC3 [2-(4-chlorophenyl)-5,6,7,8,9-pentahydrocyclohepta[1,2-b]pyrimidino[5,4-d]thiophene-4-ylamine]	elevate cellular expression of the ABCA-1 gene
Nc1ccccc1-c1nc(-c2ccc(Cl)cc2)no1 [2-[3-(4-chlorophenyl)-1,2,4-oxadiazol-5-yl]phenylamine]	elevate cellular expression of the ABCA-1 gene
CC(C)(C)c1ccc(-c2nc3cccc(F)c3c(=O)o2)cc1 [2-[4-(tert-butyl)phenyl]-5-fluorobenzo[d]1,3-oxazin-4-one]	elevate cellular expression of the ABCA-1 gene
COc1ccc(/C=C/c2nc3ccccc3c(=O)[nH]2)cc1OC [2-[(1E)-2-(3,4-dimethoxyphenyl)vinyl]-3-hydroquinazolin-4-one]	elevate cellular expression of the ABCA-1 gene
O=c1oc(/C=C/c2ccc(Cl)cc2)nc2ccccc12 [2-[(1E)-2-(4-chlorophenyl)vinyl]benzo[d]1,3-oxazin-4-one]	elevate cellular expression of the ABCA-1 gene

Molecule	cellular expression of the ABCA-1 gene
O=C(NC1=NC(C(=O)O)CS1)c1ccccc1C(F)(F)F (centres unmarked) [2-[(2-trifluoromethylphenyl)carbonylamino]-1,3-thiazoline-4-carboxylic acid]	elevate cellular expression of the ABCA-1 gene
COc1cc(C(=O)NC2=NC(C(=O)O)CS2)cc(OC)c1OC (centres unmarked) [2-[(3,4,5-trimethoxyphenyl)carbonylamino]-1,3-thiazoline-4-carboxylic acid]	elevate cellular expression of the ABCA-1 gene
O=C(NC1=NC(C(=O)O)CS1)c1ccc(Cl)c(Cl)c1 (centres unmarked) [2-[(3,4-dichlorophenyl)carbonylamino]-1,3-thiazoline-4-carboxylic acid]	elevate cellular expression of the ABCA-1 gene
O=C(NC1=NC(C(=O)O)CS1)c1cc(C(F)(F)F)cc(C(F)(F)F)c1 (centres unmarked) [2-[(3,5-bistrifluoromethylphenyl)carbonylamino]-1,3-thiazoline-4-carboxylic acid]	elevate cellular expression of the ABCA-1 gene
COc1cccc(C(=O)NC2=NC(C(=O)O)CS2)c1 (centres unmarked) [2-[(3-methoxyphenyl)carbonylamino]-1,3-thiazoline-4-carboxylic acid]	elevate cellular expression of the ABCA-1 gene
COc1ccc(C(=O)NC2=NC(C(=O)O)CS2)cc1 (centres unmarked) [2-[(4-methoxyphenyl)carbonylamino]-1,3-thiazoline-4-carboxylic acid]	elevate cellular expression of the ABCA-1 gene
Cc1ccc(C(=O)NC2=NC(C(=O)O)CS2)cc1 (centres unmarked) [2-[(4-methylphenyl)carbonylamino]-1,3-thiazoline-4-carboxylic acid]	elevate cellular expression of the ABCA-1 gene
Cc1ccc2nc(-c3ccc(NC(=O)c4ccco4)cc3)sc2c1 [2-furyl-N-[4-(6-methylbenzothiazol-2-yl)phenyl]carboxamide]	elevate cellular expression of the ABCA-1 gene
CS(=O)(=O)c1ccc2nc(NC(=O)c3ccco3)sc2c1 [2-furyl-N-[6-(methylsulfonyl)benzothiazol-2-yl]carboxamide]	elevate cellular expression of the ABCA-1 gene
O=C(Nc1ccc2c(c1)CCC2)c1ccco1 [2-furyl-N-indan-5-ylcarboxamide]	elevate cellular expression of the ABCA-1 gene
Cc1c(Nc2nc(-c3ccc4ccccc4c3)cs2)cccc1C(=O)O [2-methyl-3-[(4-(2-naphthyl)(1,3-thiazol-2-yl))amino]benzoic acid]	elevate cellular expression of the ABCA-1 gene
O=C(NCCc1ccccc1)c1ccc2ccccc2c1 [2-naphthyl-N-(2-phenylethyl)carboxamide]	elevate cellular expression of the ABCA-1 gene
O=C(Nc1ncc(-c2ccccc2)s1)c1ccc2ccccc2c1 [2-naphthyl-N-(5-phenyl(1,3-thiazol-2-yl))carboxamide]	elevate cellular expression of the ABCA-1 gene
O=C(Nc1nccs1)c1ccccc1C(F)(F)F [2-trifluoromethylphenyl-N-(1,3-thiazol-2-yl)carboxamide]	elevate cellular expression of the ABCA-1 gene
CC(C)(C)c1ccc(C(=O)NC2=NC(C(=O)O)CS2)cc1 (centres unmarked) [2-{[4-(tert-butyl)phenyl]carbonylamino}-1,3-thiazoline-4-carboxylic acid]	elevate cellular expression of the ABCA-1 gene
O=C(Nc1cccc(Cl)c1)Nc1ccccc1C(=O)O [2-{[N-(3-chlorophenyl)carbamoyl]amino}benzoic acid]	elevate cellular expression of the ABCA-1 gene
O=C(Nc1ccc(Cl)cc1)Nc1ccccc1C(=O)O [2-{[N-(4-chlorophenyl)carbamoyl]amino}benzoic acid]	elevate cellular expression of the ABCA-1 gene
O=C(NC1=NCCS1)c1ccc2c(c1)OCO2 [2H-benzo[3,4-d]1,3-dioxolan-5-yl-N-(1,3-thiazolin-2-yl)carboxamide]	elevate cellular expression of the ABCA-1 gene
CCn1c2ccccc2c2cc(CN(CCc3ccccc3)C(=O)c3ccc4c(c3)OCO4)ccc21 [2H-benzo[d]1,3-dioxolen-5-yl-N-[(9-ethylcarbazol-3-yl)methyl]-N-(2-phenylethyl)carboxamide]	elevate cellular expression of the ABCA-1 gene
CCCn1c(C(CC)N(Cc2ccccc2)C(=O)CC(C)CC(C)(C)C)nc2ccccc2c1=O (centres unmarked) [3,5,5-trimethylhexanoic acid benzyl-[1-(4-oxo-3-propyl-3,4-dihydro-quinazolin-2-yl)propyl]-amide]	elevate cellular expression of the ABCA-1 gene
